Assay results from patent publication EP4603105A1, “PHARMACEUTICAL COMPOSITION CONTAINING CYCLIC COMPOUND HAVING SELECTIVE KRAS INHIBITORY EFFECT AGAINST HRAS AND NRAS” (CHUGAI SEIYAKU KABUSHIKI KAISHA, priority 2022, dated 2024).
*1 amine or outer side, *2 acyl side, *3 side chain or, on linkers, in order; H or OH if unused. Where a SMILES comes first, the peptide text is derived from it. Bridges are numbered along the chain shown (N, C = ends). [ ]: non-standard residue; d: D form. The star is where a group is joined. X23 = O=C([C@H](Cc1ccc(C(F)(F)F)cc1)N(CC1CCCC1)[*:1])[*:2]; hPhe(3-Cl-4-CF3) = N[C@@H](CCc1ccc(C(F)(F)F)c(Cl)c1)C(=O)O; NPrPhe(4-CF3) = CCCN[C@@H](Cc1ccc(C(F)(F)F)cc1)C(=O)O; 3Oxa8azabicyclo(3.2.1)octane = C1CC2COCC1N2*; NEtPhe(4-Me) = CCN[C@@H](Cc1ccc(C)cc1)C(=O)O; X8 = CCCN([C@@H](COCCC(C)C)C(=O)[*:2])[*:1]; Pip(4,4-F2) = O=C(O)[C@@H]1CC(F)(F)CCN1; NMeGly(cPent) = CN[C@H](C(=O)O)C1CCCC1; Pro(4,4-F2) = O=C(O)[C@@H]1CC(F)(F)CN1; Gly(cPent) = N[C@H](C(=O)O)C1CCCC1; NMeD = CN[C@@H](CC(=O)O)C(=O)O; NMeL = CN[C@@H](CC(C)C)C(=O)O; Azetidin(1-yl) = C1CN(*)C1; Morpholide = C1CN(*)CCO1; NMeA = CN[C@@H](C)C(=O)O; Ac5c = NC1(C(=O)O)CCCC1; Aze = O=C(O)[C@@H]1CCN1; Ac4c = NC1(C(=O)O)CCC1; NEtG = CCNCC(=O)O; Sar = CNCC(=O)O

Legend:
[1] = molecular target: GDP-bound NRAS wild-type protein (Homo sapiens, UniProt P01111); test: Binding to NRAS by surface plasmon resonance (SPR), KD and KD ratio to KRAS
Summary of the method: (§1)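 GDP-bound biotin-Avi RAS captured at ~100–300 RU, 30°C, pH 7.4 HBS containing 10 µM GDP, 10 mM MgCl2, 1 mM DTT, 0.01% Tween 20 and 4% DMSO. KD by 1:1 fitting.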

[2] = molecular target: HRAS wild-type protein (Homo sapiens, UniProt P01112); test: Binding to HRAS by surface plasmon resonance (SPR), KD and KD ratio to KRAS
Summary of the method: as §1

[3] = system: human lung cancer strain NCI-H441; format: cell-based
Summary of the method: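 Readout: […] after the ATP-based reagent. Compound: serial dilutions in dimethyl sulfoxide.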

[4] = ratio of KD for GDP-bound NRAS wild-type protein to KD for KRAS
[5] = ratio of KD for HRAS wild-type protein to KD for KRAS
[6] = ratio of the KD value with respect to GDP-bound NRAS wild-type protein to the KD value with respect to KRAS
[7] = ratio of the KD value with respect to HRAS wild-type protein to the KD value with respect to KRAS

Chain of HRAS wild-type protein (P01112 whole entry): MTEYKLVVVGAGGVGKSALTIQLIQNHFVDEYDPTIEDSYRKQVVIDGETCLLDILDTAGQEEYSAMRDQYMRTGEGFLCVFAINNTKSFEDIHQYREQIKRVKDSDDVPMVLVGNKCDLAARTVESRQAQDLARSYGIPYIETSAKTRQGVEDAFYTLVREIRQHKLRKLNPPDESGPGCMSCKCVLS
Chain of GDP-bound NRAS wild-type protein (P01111 whole entry): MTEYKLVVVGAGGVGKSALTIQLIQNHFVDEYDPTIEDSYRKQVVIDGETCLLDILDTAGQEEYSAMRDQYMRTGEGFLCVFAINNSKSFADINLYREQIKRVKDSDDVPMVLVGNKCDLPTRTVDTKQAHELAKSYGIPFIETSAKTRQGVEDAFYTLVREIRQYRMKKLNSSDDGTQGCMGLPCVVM

SMILES	IC50 [3] [µM]	NRAS /KRAS [1, 4]	HRAS /KRAS [2, 5]	NRAS /KRAS [1, 6]	HRAS /KRAS [2, 7]	NRAS /KRAS ([1]; ratio of KD value for GDP-bound NRAS wild-type protein to KD value for KRAS (SPR))	HRAS /KRAS ([2]; ratio of KD value for HRAS wild-type protein to KD value for KRAS (SPR))
CCC[C@H]1C(=O)N[C@@H]([C@@H](C)CC)C(=O)N(C2CC2)CC(=O)N(C)[C@H]2C/C=C\CCN(C2=O)[C@@H](Cc2ccc(C(F)(F)F)cc2)C(=O)N(C)CC(=O)N[C@@H](CCc2cc(F)c(C(F)(F)F)c(F)c2)C(=O)N2C[C@H](OCC)C[C@H]2C(=O)N(C)C2(CCC2)C(=O)N(C)[C@@H](C2CCCC2)C(=O)N(C)[C@H](C(=O)N2CCCCC2)CC(=O)N1C [PP3110]	0.0699	A (a compound having 10 or more and less than 20 is denoted as A)	A (a compound having 10 or more and less than 20 is denoted as A)				
CCCN1C(=O)CN(C)C(=O)CN(C)C(=O)[C@H]([C@@H](C)CC)NC(=O)[C@H](CC(C)C)N(C)C(=O)C[C@@H](C(=O)N(C)C)NC(=O)[C@H](C2CCCC2)N(C)C(=O)C2(CCCC2)NC(=O)[C@@H]2CC(F)(F)CN2C(=O)[C@H](CCc2ccc(C(F)(F)F)c(Cl)c2)NC(=O)CN(C)C(=O)[C@@H]1Cc1ccc(C(F)(F)F)cc1 [PP0357] ([NMeL]I[Sar][Sar][NPrPhe(4-CF3)][Sar][hPhe(3-Cl-4-CF3)][Pro(4,4-F2)][Ac5c][NMeGly(cPent)]D-NMe2; lactam N-11)	0.0398	B (a compound having 3 or more and less than 10 is denoted as B)	B (a compound having 3 or more and less than 10 is denoted as B)				
CC[C@H](C)[C@@H]1NC(=O)[C@H](CC(C)C)N(C)C(=O)C[C@@H](C(=O)N2C3CCC2COC3)N(C)C(=O)[C@H](C2CCCC2)N(C)C(=O)C2(CCCC2)NC(=O)[C@@H]2CCCN2C(=O)[C@H](CCc2ccc(C(F)(F)F)c(Cl)c2)NC(=O)CN(C)C(=O)[C@H](Cc2ccc(C)cc2)N(CC)C(=O)CN(C)C(=O)CN(C)C1=O [PP0051] ([NMeL]I[Sar][Sar][NEtPhe(4-Me)][Sar][hPhe(3-Cl-4-CF3)]P[Ac5c][NMeGly(cPent)][NMeD]-{3Oxa8azabicyclo(3.2.1)octane}; lactam N-11)	0.0221	C (A compound having a KD ratio of 0.1 or more and less than 3 is denoted as C)	C (A compound having a KD ratio of 0.1 or more and less than 3 is denoted as C)				
CCO[C@@H]1C[C@H]2C(=O)NC3(CC(C)(C)C3)C(=O)N(C)[C@@H](C(CC)CC)C(=O)N(C)[C@H](C(=O)N3CCCC3)CC(=O)N(C)[C@@H](CC)C(=O)N[C@@H]([C@@H](C)CC)C(=O)N(C)CC(=O)N(C)[C@H]3C/C=C\CCN(C3=O)[C@@H](Cc3ccc(C)cc3)C(=O)N(C)CC(=O)N[C@@H](CCc3cc(F)c(C(F)(F)F)c(F)c3)C(=O)N2C1 [PP2149]	0.0177			A (a compound having 10 or more and less than 20 is denoted as A)	A (a compound having 10 or more and less than 20 is denoted as A)		
CCCN1C(=O)CN(C)C(=O)CN(C)C(=O)[C@H]([C@@H](C)CC)NC(=O)[C@H](CC(C)C)N(C)C(=O)C[C@@H](C(=O)N2CCOCC2)N(C)C(=O)[C@H](C2CCCC2)N(C)C(=O)C2(CCC2)NC(=O)[C@@H]2CCCN2C(=O)[C@H](CCc2ccc(C(F)(F)F)c(Cl)c2)NC(=O)CN(C)C(=O)[C@@H]1COCCC(C)C [PP1817] ([NMeL]I[Sar][Sar][X8][Sar][hPhe(3-Cl-4-CF3)]P[Ac4c][NMeGly(cPent)][NMeD]-Morpholide; lactam N-11)	0.0204					C (A compound having a KD ratio of 0.1 or more and less than 3 is denoted as C)	C (A compound having a KD ratio of 0.1 or more and less than 3 is denoted as C)
CCCN1C(=O)CN(C)C(=O)CN(CC)C(=O)[C@H]([C@@H](C)CC)NC(=O)[C@H](CC(C)C)N(C)C(=O)C[C@@H](C(=O)N2CCOCC2)N(C)C(=O)[C@H](C2CCCC2)N(C)C(=O)C2(CCCC2)NC(=O)[C@@H]2CC(F)(F)CCN2C(=O)[C@H](CCc2ccc(C(F)(F)F)c(Cl)c2)NC(=O)CN(C)C(=O)[C@@H]1Cc1ccc(C(F)(F)F)cc1 [PP0298] ([NMeL]I[NEtG][Sar][NPrPhe(4-CF3)][Sar][hPhe(3-Cl-4-CF3)][Pip(4,4-F2)][Ac5c][NMeGly(cPent)][NMeD]-Morpholide; lactam N-11)	0.0411	B (a compound having 3 or more and less than 10 is denoted as B)	C (A compound having a KD ratio of 0.1 or more and less than 3 is denoted as C)				
CCO[C@@H]1C[C@H]2C(=O)NC3(CCC3)C(=O)N(C)[C@@H](C3CCCC3)C(=O)N(C)[C@H](C(=O)N3CCOCC3)CC(=O)N(C)[C@@H](Cc3ccccc3Cl)C(=O)N[C@@H]([C@@H](C)CC)C(=O)N(C)CC(=O)N(C)[C@H]3CCCCCN(C3=O)[C@@H](Cc3ccc(C(F)(F)F)cc3)C(=O)N(C)CC(=O)N[C@@H](CCc3cc(F)c(C(F)(F)F)c(F)c3)C(=O)N2C1 [PP0929]	0.317	A (a compound having 10 or more and less than 20 is denoted as A)	B (a compound having 3 or more and less than 10 is denoted as B)				
CC[C@H](C)[C@@H]1NC(=O)[C@H](CC(C)C)N(C)C(=O)C[C@@H](C(=O)N2CCOCC2)N(CC)C(=O)[C@H](C2CCCC2)N(C)C(=O)C2(CCC2)NC(=O)[C@@H]2[C@H](O)CCN2C(=O)[C@H](CCc2cc(F)c(C(F)(F)F)c(F)c2)NC(=O)CN(C)C(=O)[C@H](Cc2ccc(C(F)(F)F)cc2)N2CCCCC[C@@H](C2=O)N(C)C(=O)CN(C)C1=O [PP0955]	6.48	A (a compound having 10 or more and less than 20 is denoted as A)	A (a compound having 10 or more and less than 20 is denoted as A)				
CC[C@H](C)[C@@H]1NC(=O)[C@H](CC(C)C)N(C)C(=O)C[C@@H](C(=O)N2CCOCC2)N(C)C(=O)[C@H](C2CCCC2)N(C)C(=O)C2(CCCC2)NC(=O)[C@@H]2CCCN2C(=O)[C@H](CCc2ccc(C(F)(F)F)c(Cl)c2)NC(=O)CN(C)C(=O)[C@H](Cc2ccc(C(F)(F)F)cc2)N(CC2CCCC2)C(=O)[C@@H]2CCN2C(=O)[C@H](C)N(C)C1=O [PP0110] ([NMeL]I[NMeA][Aze][X23][Sar][hPhe(3-Cl-4-CF3)]P[Ac5c][NMeGly(cPent)][NMeD]-Morpholide; lactam N-11)	0.0565	C (A compound having a KD ratio of 0.1 or more and less than 3 is denoted as C)	B (a compound having 3 or more and less than 10 is denoted as B)				

These reach a lower IC50 [3]. Values come first.

IC50 [3] [µM]	SMILES	NRAS /KRAS [1, 4]	HRAS /KRAS [2, 5]	NRAS /KRAS [1, 6]	HRAS /KRAS [2, 7]	NRAS /KRAS ([1]; ratio of KD value for GDP-bound NRAS wild-type protein to KD value for KRAS (SPR))	HRAS /KRAS ([2]; ratio of KD value for HRAS wild-type protein to KD value for KRAS (SPR))
0.0065	CCC[C@H]1C(=O)N[C@@H]([C@@H](C)CC)C(=O)N2CCC[C@H]2C(=O)N(C)[C@H]2C/C=C\CCN(C2=O)[C@@H](Cc2ccc(C)cc2)C(=O)N(C)CC(=O)N[C@@H](CCc2ccc(C(F)(F)F)c(OC)c2)C(=O)N2C[C@H](OCC)C[C@H]2C(=O)N(C)C2(CCC2)C(=O)N(C)[C@@H](C(CC)CC)C(=O)N(C)[C@H](C(=O)N(C)C)CC(=O)N1C [PP2329]			A (a compound having 10 or more and less than 20 is denoted as A)	A (a compound having 10 or more and less than 20 is denoted as A)		
0.0043	CC[C@H](C)[C@@H]1NC(=O)[C@@H]2CCCCc3ccc(cc3)C[C@@H](C(=O)N(C)CC(=O)N[C@@H](CCc3ccc(C(F)(F)F)c(OC)c3)C(=O)N3C[C@H](OC4CCCC4)C[C@H]3C(=O)NC3(CC(C)(C)C3)C(=O)N(C)[C@@H](C3CCCC3)C(=O)N(C)[C@H](C(=O)N(C)C)CC(=O)N2C)N2CC/C=C\C[C@@H](C2=O)N(C)C(=O)CN(C)C1=O [PP3080]	A (a compound having 10 or more and less than 20 is denoted as A)	B (a compound having 3 or more and less than 10 is denoted as B)				
0.0038	CCCN1C(=O)CN(C)C(=O)CN(C)C(=O)[C@H]([C@@H](C)CC)NC(=O)[C@H](CC(C)C)N(C)C(=O)C[C@@H](C(=O)N2CCC2)N(C)C(=O)[C@H](C2CCCC2)N(C)C(=O)C2(CCCC2)NC(=O)[C@@H]2CCCN2C(=O)[C@H](CCc2ccc(C(F)(F)F)c(Cl)c2)NC(=O)CN(C)C(=O)[C@@H]1Cc1ccc(C(F)(F)F)cc1 [PP0172] ([NMeL]I[Sar][Sar][NPrPhe(4-CF3)][Sar][hPhe(3-Cl-4-CF3)]P[Ac5c][NMeGly(cPent)][NMeD]-{Azetidin(1-yl)}; lactam N-11)	B (a compound having 3 or more and less than 10 is denoted as B)	C (A compound having a KD ratio of 0.1 or more and less than 3 is denoted as C)				
0.0037	CCCN1C(=O)[C@@H]2CCN2C(=O)[C@H](C)N(C)C(=O)[C@H](C2CCCC2)NC(=O)[C@H](CC(C)C)N(C)C(=O)C[C@@H](C(=O)N2CCOCC2)N(C)C(=O)[C@H](C2CCCC2)N(C)C(=O)C2(CCCC2)NC(=O)[C@@H]2CCCN2C(=O)[C@H](CCc2ccc(C(F)(F)F)c(Cl)c2)NC(=O)CN(C)C(=O)[C@@H]1Cc1ccc(C(F)(F)F)cc1 [PP0272] ([NMeL][Gly(cPent)][NMeA][Aze][NPrPhe(4-CF3)][Sar][hPhe(3-Cl-4-CF3)]P[Ac5c][NMeGly(cPent)][NMeD]-Morpholide; lactam N-11)	C (A compound having a KD ratio of 0.1 or more and less than 3 is denoted as C)	B (a compound having 3 or more and less than 10 is denoted as B)				
0.0019	CCO[C@@H]1C[C@H]2C(=O)NC3(CC(C)(C)C3)C(=O)N(C)[C@@H](C3CCCC3)C(=O)N(C)[C@H](C(=O)N(C)CC)CC(=O)N(C)[C@H]3CCCCCCc4ccc(cc4)C[C@@H](C(=O)N(C)CC(=O)N[C@@H](CCc4ccc(C(F)(F)F)c(OC)c4)C(=O)N2C1)N1CC/C=C\C[C@@H](C1=O)N(C)C(=O)CN(C)C(=O)[C@H]([C@@H](C)CC)NC3=O [PP2260]			A (a compound having 10 or more and less than 20 is denoted as A)	A (a compound having 10 or more and less than 20 is denoted as A)		
